Activity calls are given as the source filed them.
Columns and labels:
[1] = biological target: Glucose-6-phosphate 1-dehydrogenase (Homo sapiens, UniProt P11413); assay: inhibition of Homo sapiens G6PD, dose series – biochemical, fluorescence, selectivity assay for P. falciparum G6PD inhibitor project, dose response (AID 504792); format: functional
[2] = biological target: Glyceraldehyde-3-phosphate dehydrogenase (Homo sapiens, UniProt P04406)
[3] = biological target: T1, Alkaline phosphatase, tissue-nonspecific isozyme (Homo sapiens, UniProt P05186); assay: potency against alkaline phosphatase TNAP – biochemical, luminescent, dose response, SAR follow-up (AID 1056)
T1 sequence (P05186 whole entry): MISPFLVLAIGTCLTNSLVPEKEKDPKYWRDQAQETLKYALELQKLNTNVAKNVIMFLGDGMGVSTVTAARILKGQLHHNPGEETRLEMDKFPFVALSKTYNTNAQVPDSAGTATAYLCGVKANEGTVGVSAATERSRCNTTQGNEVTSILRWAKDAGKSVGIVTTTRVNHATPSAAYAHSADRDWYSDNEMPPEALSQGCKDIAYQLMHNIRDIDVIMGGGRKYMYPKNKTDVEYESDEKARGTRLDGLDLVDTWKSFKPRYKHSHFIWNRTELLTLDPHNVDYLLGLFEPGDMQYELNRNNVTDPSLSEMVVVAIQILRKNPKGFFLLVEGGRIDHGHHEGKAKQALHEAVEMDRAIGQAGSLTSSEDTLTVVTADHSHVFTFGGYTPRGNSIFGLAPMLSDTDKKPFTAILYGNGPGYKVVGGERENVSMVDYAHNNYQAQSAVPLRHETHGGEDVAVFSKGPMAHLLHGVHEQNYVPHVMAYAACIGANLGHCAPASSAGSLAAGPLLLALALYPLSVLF

[4] = biological target: T2, Heat shock factor protein 1 (Mus musculus, UniProt P38532); assay: decrease of HSF1-responsive luciferase luminescence – cell-based, NIH3T3, dose retest, confirmation (AID 2382); format: functional;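 further: NIH3T3 fibroblasts with HSF1-driven luciferase reporter stressed by proteasome inhibitor MG132; luminescence from HSF1-driven luciferase expression after 8 hours of MG132 stress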
T2 sequence (P38532 whole entry): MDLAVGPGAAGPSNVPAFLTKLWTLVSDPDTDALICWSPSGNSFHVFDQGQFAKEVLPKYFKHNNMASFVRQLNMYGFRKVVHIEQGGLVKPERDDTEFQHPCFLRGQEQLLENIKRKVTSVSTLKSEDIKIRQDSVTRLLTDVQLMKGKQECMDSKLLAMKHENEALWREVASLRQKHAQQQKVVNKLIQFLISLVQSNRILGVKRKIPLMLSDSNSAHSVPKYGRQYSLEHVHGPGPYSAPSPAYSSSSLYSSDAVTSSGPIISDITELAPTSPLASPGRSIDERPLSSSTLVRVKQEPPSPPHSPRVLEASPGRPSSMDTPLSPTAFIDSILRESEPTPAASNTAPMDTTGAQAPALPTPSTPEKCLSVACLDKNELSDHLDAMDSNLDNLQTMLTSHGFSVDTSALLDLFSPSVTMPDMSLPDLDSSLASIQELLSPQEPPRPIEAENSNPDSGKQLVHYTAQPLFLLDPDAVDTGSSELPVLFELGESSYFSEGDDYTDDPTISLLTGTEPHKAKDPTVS

[5] = tested on: HEK293; assay: EBV LMP1 TES2 canonical NF-kB signalling blockers – cell-based, HEK293, luciferase, cherry-pick, dose response (AID 588343); format: functional; settings: Homo sapiens
[6] = biological target: T3, Rac GTPase-activating protein 1 (Homo sapiens, UniProt Q9H0H5); assay: blockers of MgcRacGAP-driven Rac1 GTP hydrolysis – biochemical, ADP Hunter fluorescence, primary and confirmatory, confirmation (AID 624330); format: functional
T3 sequence (Q9H0H5 whole entry): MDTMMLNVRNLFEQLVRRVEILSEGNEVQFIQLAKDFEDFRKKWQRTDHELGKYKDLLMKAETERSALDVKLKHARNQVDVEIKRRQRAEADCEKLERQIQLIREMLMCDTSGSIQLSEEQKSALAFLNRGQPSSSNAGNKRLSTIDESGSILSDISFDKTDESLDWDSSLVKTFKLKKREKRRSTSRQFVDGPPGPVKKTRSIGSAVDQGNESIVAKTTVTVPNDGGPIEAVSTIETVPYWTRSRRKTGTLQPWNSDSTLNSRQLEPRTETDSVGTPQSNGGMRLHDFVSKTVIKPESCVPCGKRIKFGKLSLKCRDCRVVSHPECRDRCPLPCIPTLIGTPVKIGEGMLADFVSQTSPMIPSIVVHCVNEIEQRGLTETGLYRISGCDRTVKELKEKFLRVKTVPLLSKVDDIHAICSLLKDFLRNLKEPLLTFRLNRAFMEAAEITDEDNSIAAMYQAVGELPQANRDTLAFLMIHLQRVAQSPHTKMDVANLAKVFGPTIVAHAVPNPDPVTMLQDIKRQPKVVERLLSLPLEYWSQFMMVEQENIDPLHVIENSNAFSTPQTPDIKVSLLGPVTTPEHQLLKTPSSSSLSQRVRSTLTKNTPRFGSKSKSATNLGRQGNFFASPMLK

[7] = NIH3T3 cell viability loss – ATP luminescence, mouse fibroblasts, counter-screen, dose response (AID 2010); format: functional, cell-based;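 further: cells exposed to compound for about 90 hours before reading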
[8] = biological target: Eukaryotic translation initiation factor 4E (Mus musculus, UniProt P63073); assay: blockers of eIF4G binding by eIF4E – biochemical, TR-FRET, dose response (AID 855); format: functional;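 further: potency for disrupting eIF4E binding to eIF4GI seen as loss of FRET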
Sequence of Eukaryotic translation initiation factor 4E (P63073 whole entry): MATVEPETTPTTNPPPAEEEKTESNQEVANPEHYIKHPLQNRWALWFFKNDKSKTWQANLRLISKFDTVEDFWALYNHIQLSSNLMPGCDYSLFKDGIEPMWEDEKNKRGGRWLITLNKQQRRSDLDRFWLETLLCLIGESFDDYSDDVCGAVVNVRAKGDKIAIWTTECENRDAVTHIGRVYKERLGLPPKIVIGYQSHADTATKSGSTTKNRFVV

[9] = biological target: T4, Mannose-6-phosphate isomerase (Homo sapiens, UniProt P34949); assay: MPI inhibition at elevated mannose 6-phosphate – biochemical, fluorescence intensity, high mannose 6-phosphate, primary screen (AID 1220)
T4 sequence (P34949 whole entry): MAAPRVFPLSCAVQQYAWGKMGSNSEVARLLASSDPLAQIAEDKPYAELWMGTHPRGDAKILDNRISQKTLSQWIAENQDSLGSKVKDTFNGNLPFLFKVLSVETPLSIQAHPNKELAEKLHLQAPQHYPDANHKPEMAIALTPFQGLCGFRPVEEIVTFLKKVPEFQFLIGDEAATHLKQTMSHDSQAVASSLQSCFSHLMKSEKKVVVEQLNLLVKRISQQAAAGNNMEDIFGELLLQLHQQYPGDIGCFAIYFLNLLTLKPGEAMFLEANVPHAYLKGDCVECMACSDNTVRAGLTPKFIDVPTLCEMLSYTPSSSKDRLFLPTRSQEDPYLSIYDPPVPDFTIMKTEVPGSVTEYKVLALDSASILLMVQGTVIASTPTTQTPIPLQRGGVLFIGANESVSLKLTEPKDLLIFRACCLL

[10] = biological target: Genome polyprotein (dengue virus type 2, UniProt P29990); assay: flavivirus cap methylation enzyme inhibition – biochemical, confirmation dose response, primary screen (AID 588689); format: functional
Sequence of Genome polyprotein (P29990 2492-3391 limits assumed): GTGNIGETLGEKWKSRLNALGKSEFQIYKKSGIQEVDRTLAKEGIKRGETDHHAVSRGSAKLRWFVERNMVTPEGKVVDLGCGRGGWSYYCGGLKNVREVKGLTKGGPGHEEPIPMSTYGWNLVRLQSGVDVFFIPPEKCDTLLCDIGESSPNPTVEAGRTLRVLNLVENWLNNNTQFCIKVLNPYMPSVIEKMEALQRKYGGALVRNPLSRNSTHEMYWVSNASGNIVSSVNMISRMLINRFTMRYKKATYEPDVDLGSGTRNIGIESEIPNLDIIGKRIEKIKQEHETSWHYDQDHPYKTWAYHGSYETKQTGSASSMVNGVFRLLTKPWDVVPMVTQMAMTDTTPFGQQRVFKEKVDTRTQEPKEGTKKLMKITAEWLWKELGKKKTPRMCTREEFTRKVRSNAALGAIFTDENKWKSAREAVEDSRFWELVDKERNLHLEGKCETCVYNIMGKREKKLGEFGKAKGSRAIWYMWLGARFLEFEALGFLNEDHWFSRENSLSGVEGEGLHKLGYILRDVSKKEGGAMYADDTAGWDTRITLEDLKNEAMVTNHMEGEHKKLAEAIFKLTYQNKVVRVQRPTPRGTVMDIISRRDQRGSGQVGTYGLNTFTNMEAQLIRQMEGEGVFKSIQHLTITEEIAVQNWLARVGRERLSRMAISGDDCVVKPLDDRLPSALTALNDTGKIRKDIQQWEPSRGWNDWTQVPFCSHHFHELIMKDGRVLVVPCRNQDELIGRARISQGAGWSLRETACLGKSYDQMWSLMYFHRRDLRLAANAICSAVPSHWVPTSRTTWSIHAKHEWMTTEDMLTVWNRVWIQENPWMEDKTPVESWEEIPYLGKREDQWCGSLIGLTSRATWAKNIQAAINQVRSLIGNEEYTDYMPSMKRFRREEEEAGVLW

[11] = Trypanosoma cruzi growth suppression in host cells – NIH3T3 host cells, beta-gal luminescence, confirmation (AID 2044); format: functional, cell-based;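 further: intracellular parasites grown in NIH/3T3 mouse fibroblasts as host cells; luminescent beta-galactosidase reporter signal from transgenic T. cruzi replicating inside host cells; inhibitors lower the luminescence signal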
[12] = biological target: DNA dC->dU-editing enzyme APOBEC-3G (Homo sapiens, UniProt Q9HC16); format: functional;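 further: Dose-response counterscreen measuring inhibition of APOBEC3G DNA deaminase activity, run while confirming APOBEC3A inhibitors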
Sequence of DNA dC->dU-editing enzyme APOBEC-3G (Q9HC16 whole entry): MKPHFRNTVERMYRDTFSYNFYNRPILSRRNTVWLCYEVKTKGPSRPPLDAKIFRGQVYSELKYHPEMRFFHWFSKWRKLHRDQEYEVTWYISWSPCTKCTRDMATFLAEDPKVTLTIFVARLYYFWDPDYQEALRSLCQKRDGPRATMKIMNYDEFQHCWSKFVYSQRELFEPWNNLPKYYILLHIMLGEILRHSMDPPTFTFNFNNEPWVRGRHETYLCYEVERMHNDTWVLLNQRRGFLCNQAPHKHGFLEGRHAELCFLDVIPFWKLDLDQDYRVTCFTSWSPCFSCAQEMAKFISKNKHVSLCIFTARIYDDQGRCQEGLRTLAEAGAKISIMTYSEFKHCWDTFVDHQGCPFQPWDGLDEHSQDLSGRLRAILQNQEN

[13] = biological target: DNA dC->dU-editing enzyme APOBEC-3A (Homo sapiens, UniProt P31941); assay: Dose Response confirmation of small molecule APOBEC3A DNA Deaminase Inhibitors via a fluorescence-based single-stranded DNA deaminase assay. [Related pubchem assays (depositor defined):AID493011, AID493024]; format: functional
Sequence of DNA dC->dU-editing enzyme APOBEC-3A (P31941 whole entry): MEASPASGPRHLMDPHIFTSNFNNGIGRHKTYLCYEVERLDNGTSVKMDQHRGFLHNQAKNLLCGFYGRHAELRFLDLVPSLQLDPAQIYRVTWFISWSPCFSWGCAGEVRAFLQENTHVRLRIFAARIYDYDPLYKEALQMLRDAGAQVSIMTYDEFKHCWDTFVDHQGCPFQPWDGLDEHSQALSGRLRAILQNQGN

[14] = alpha-synuclein stem-loop luciferase translation blockers – H4 neuroglioma cells, luminescence, confirmation (AID 1988); format: functional, cell-based
[15] = luciferase reporter signal suppression in cells – H4 neuroglioma cells, luminescence, dose response (AID 1990); format: functional, cell-based
[16] = Luminescence Cell-Based Dose Response HTS to Identify Inhibitors of 5'UTR Stem-Loop Driven Prion Protein mRNA Translation in H4 Neuroglioblastoma Cells. [Related pubchem assays: 1827 (Project Summary), 1813 (Primary HTS)]; format: functional
[17] = biological target: T5, Endoribonuclease toxin MazF (Escherichia coli K-12, UniProt P0AE70); assay: activation of MazEF endoribonuclease cleavage – biochemical, fluorescence, single-stranded RNA substrate, uHTS hits, dose response (AID 588481); format: functional
T5 sequence (P0AE70 whole entry): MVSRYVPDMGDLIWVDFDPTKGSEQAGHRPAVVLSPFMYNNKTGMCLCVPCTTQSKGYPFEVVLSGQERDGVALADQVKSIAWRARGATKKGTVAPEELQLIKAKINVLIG

[18] = biological target: T5, Endoribonuclease toxin MazF; assay: substrate-only fluorescence increase artefacts – biochemical, single-stranded RNase substrate, counter-screen for MazEF activator project, dose response (AID 588502); format: functional
[19] = biological target: T6, DNA repair protein RAD52 homolog (Homo sapiens, UniProt P43351); format: functional, biochemical
T6 sequence (P43351 whole entry): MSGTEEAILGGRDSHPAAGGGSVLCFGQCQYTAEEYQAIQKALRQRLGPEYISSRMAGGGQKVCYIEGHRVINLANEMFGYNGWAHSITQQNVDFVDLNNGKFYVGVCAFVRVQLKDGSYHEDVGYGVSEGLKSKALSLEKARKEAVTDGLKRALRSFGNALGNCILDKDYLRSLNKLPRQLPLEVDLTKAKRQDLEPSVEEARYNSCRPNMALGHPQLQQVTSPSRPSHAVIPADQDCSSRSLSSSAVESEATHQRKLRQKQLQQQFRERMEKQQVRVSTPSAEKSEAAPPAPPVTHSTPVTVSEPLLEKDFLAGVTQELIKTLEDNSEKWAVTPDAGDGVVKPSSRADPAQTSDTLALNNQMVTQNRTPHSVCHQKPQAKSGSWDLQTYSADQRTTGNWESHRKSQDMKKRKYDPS

[20] = A Cell Based Secondary Assay To Explore Cytotoxicity of Compounds that Sensitize Mycobacterium Tuberculosis to Beta-Lactam Antibiotics.; format: functional
[21] = tested on: INS1; assay: INS-1E survival protection against cytokine death – cell-based, luminescence, retest, dose response (AID 449756); format: functional; settings: Rattus norvegicus;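 further: cell death triggered by IL-1 beta plus TNF-alpha plus IFN-gamma mixture; protective hits raise ATP signal compared with cytokine alone wells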

Sequence of Glyceraldehyde-3-phosphate dehydrogenase (P04406 whole entry): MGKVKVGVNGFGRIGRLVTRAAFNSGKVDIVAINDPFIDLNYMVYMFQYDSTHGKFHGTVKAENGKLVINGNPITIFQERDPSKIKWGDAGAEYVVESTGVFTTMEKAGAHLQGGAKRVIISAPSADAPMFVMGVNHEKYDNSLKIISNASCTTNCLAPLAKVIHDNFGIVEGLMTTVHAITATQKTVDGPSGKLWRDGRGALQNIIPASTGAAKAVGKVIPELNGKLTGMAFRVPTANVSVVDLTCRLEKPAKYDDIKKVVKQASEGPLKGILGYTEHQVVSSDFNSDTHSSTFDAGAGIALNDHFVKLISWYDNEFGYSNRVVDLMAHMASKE
Sequence of Glucose-6-phosphate 1-dehydrogenase (P11413 whole entry): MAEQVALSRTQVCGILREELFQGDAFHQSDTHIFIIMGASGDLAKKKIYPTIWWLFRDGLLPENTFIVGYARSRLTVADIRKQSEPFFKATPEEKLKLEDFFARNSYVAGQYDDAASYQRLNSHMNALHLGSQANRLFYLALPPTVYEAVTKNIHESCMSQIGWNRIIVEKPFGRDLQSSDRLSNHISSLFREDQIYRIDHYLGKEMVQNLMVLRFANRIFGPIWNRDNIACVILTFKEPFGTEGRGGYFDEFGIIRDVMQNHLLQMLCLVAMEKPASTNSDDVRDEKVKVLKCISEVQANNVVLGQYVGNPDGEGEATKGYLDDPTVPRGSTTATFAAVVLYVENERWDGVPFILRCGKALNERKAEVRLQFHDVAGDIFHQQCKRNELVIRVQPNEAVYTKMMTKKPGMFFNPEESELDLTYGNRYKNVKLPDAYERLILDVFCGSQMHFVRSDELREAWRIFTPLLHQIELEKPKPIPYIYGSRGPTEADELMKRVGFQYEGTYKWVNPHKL

CCc1c(C#N)c(S)nc(C)c1C(=O)Nc1ccccc1
IC50 [1]: > 80 µM (inactive)

O=C1C2CC=C(Cl)CC2C(=O)N1c1nnc[nH]1 (stereo not given)
IC50 [2]: > 100 µM (not active)
IC50 [3]: > 100 µM (inactive)

O=C1c2ccccc2C(=O)C1c1nc2ccccc2[nH]1
IC50 [2]: > 100 µM (not active)
IC50 [3]: > 100 µM (inactive)

Cc1cc(/C=C2\Cc3ccccc3C2=O)c(C)n1-c1ccccc1
EC50 [4]: < 0.16 µM (active)
AC50 [5]: 1.87 µM (active)

COc1c(S(=O)(=O)Nc2cccnc2)ccc(Cl)c1Cl
IC50 [3]: > 100 µM (inactive)

COC(=O)CCNc1ccc2c(c1)OCCO2
EC50 [4]: 1.73 µM (active)
AC50 [5]: 1.9 µM (active)
IC50 [6]: 251 µM (active)

CC(C)(C)c1ccc(S(=O)(=O)Nc2cnc3ccccc3c2)cc1
IC50 [2]: > 100 µM (not active)
IC50 [3]: > 100 µM (inactive)

COc1ccc(NS(=O)(=O)c2ccc(OC)c(OC)c2)cn1
IC50 [2]: > 100 µM (not active)
IC50 [3]: > 100 µM (inactive)

O=C(CSc1nc2cc(Cl)ccc2[nH]1)NC1CCCc2ccccc21 (stereo not given)
IC50 [1]: > 80 µM (inactive)

Fc1cccc(Cl)c1CNc1ccc(N2CCCC2)cc1
EC50 [7]: > 60 µM (not active)
IC50 [8]: 50 µM (inactive)
IC50 [9]: 30.5 µM (active)
IC50 [10]: 35.6 µM (active)
EC50 [11]: 2.52 µM (active)
IC50 [1]: > 80 µM (inactive)

Cn1ccnc1Sc1nc(Nc2ccccc2)nc(Nc2ccccc2)n1
IC50 [2]: > 100 µM (not active)
IC50 [3]: > 100 µM (inactive)

COc1ccc(C(=O)OCC[N+]2(C)CCOCC2)cc1
IC50 [8]: 50 µM (inactive)
IC50 [12]: 3.47 µM (active)
IC50 [13]: 1.97 µM (active)

Cc1ccccc1C(=O)N1CCN(c2ccc(NC(=O)c3ccco3)cc2Cl)CC1
AC50 [5]: 2.45 µM (active)

CC(C)c1ccc(-c2cc(C(=O)O)[nH]n2)cc1
IC50 [2]: > 100 µM (not active)
IC50 [3]: > 100 µM (inactive)

Cc1csc(SCC(=O)c2cc(C)n(Cc3cccs3)c2C)n1
EC50 [14]: 6.24 µM (active)
AC50 [5]: 2.29 µM (active)
EC50 [15]: 8.74 µM (active)
EC50 [16]: 8.09 µM (active)

Cc1cc(NC(=O)/C(C#N)=C\c2ccc(-c3ccc(SC(F)F)cc3)o2)n(-c2ccccc2)n1
EC50 [17]: > 99 µM (inactive)
EC50 [18]: 22.8 µM (inactive)

c1nc2nc[nH]c(SSc3[nH]cnc4ncnc3-4)c-2n1
IC50 [1]: 30.8 µM (inactive)
IC50 [6]: 75.2 µM (active)

O=C1Nc2cc(C(=O)NCCCN3CCCC3)ccc2S/C1=C/c1cccc(Cl)c1
AC50 [19]: 7.29 µM (active)
IC50 [1]: > 80 µM (inactive)

COc1cc(C(=O)Oc2ccccc2/C=N/NC(=O)c2ccc(C)c(Cl)c2)cc(OC)c1OC
EC50 [7]: > 60 µM (not active)
CC50 [20]: 2.84 µM (active)
EC50 [11]: 1.17 µM (active)
AC50 [21]: 0.829 µM (active)
AC50 [5]: 12.9 µM (active)

COC(=O)c1ccccc1/N=C/C1=C(O)c2c(C)nn(-c3ccccn3)c2CC1
IC50 [1]: > 80 µM (inactive)

Cc1nnc(N/N=C\c2ccc(-c3cccc(C(=O)O)c3)o2)n1N
IC50 [1]: 66.8 µM (inactive)

S=C(N/N=C/c1ccc2ncccc2c1)Nc1cccnc1
AC50 [5]: 1.59 µM (active)

COc1ccc(OC)c(NS(=O)(=O)c2cnc3ccccc3c2)c1
IC50 [2]: > 10 µM (inconclusive)
IC50 [3]: > 10 µM (inactive)
